Experimental data from patent US7118895B2, “Process for producing aglycon by using diglycosidase and flavor-improved food containing the aglycon and converting agent to be used in the process” (Amano Enzyme Inc., priority 2000, dated 2006).

What was measured:
[1] = system: Diglycosidase derived from P. multicolor; assay: Reactivity toward various isoflavone glycosides (HPLC); type: biochemical, Penicillium multicolor; design: glucoside / aglycon: unit not given here; conditions: 55 °C, pH 4.0
Description: (§1) Diglycosidase was diluted with an acetate buffer of pH 4.0 to prepare a 0.75 AU/mL enzyme solution. As references, a similar operation was conducted using β-glucosidase (manufactured by Fluka) derived from Aspergillus niger, β-glucosidase (manufactured by Sigma) derived from almond, β-xylosidase derived from pectinase G (manufactured by Amano Enzyme Inc.). Each of purified products of isoflavone glycosides (glycitin, acetylglycitin, malonylglycitin, daidzin, acetyldaidzin, malonyldaidzin, genistin, acetylgenistin, malonylgenistin, all manufactured by Nacalai Tesque, Inc.) was dissolved in methanol to prepare each 2 mM substrate solution. The reaction was carried out by mixing 10 μL of a substrate solution, 200 μL of 20 mM acetate buffer (pH 4.0), and 40 μL of each purified enzyme solution at a total liquid volume of 250 μL. The reaction was carried out at 55° C. and isolation of an aglycon isoflavone from an isoflavone glycoside in the reaction mixture was detected by HLPC at 0, 1, 3, and 6 hours of the reaction.
(§2) To the reaction mixture was added 700 μL of ethanol, followed by stirring and ultrasonication. After centrifugation at 15,000 rpm and 4° C. for 10 minutes, the supernatant was filtered through a filter and then the filtrate was applied to HPLC.
(§3) The isoflavone glycoside and aglycon isoflavone contained in the filtrate was separated and detected by a high performance liquid chromatography (HPLC, Shimadzu CLASS LC-10 system) using TOSOH TSK gel ODS-80TM column (manufactured by Tosoh Corporation). […] The absorbance at 260 nm was detected by a UV detector (Shimadzu, SPD-10AV). Using purified products (manufactured by Nacalai Tesque, Inc.) of the above isoflavone glycosides and aglycon isoflavones, the isoflavone glycoside and aglycon isoflavone were quantitatively determined according to a calibration curve method. By the way, unless otherwise stated, the measuring conditions of HPLC herein mean those described in the example.

[2] = system: Diglycosidase derived from A. fumigatus; assay: as above; type: biochemical, Aspergillus fumigatus; design: unit not given here; conditions: 55 °C, pH 4.0
Description: as §1, §2, §3

[3] = system: β-Glucosidase derived from almond; assay: as above; type: biochemical; design: unit not given here; conditions: 55 °C, pH 4.0
Description: as §1, §2, §3

[4] = system: β-Xylosidase derived from pectinase G; assay: as above; type: biochemical; design: unit not given here; conditions: 55 °C, pH 4.0
Description: as §1, §2, §3

Purified diglycosidase = assay: Influence of free glucose on diglycosidase activity; type: biochemical, Penicillium multicolor IAM7153; conditions: isolated aglycon amount at glucose 0% and 0.5 hour = 100%
Description: Purified diglycosidase was diluted with 20 mM acetate buffer of pH 4.0 to prepare a 0.75 AU/mL enzyme solution.
With a glucose solution was mixed 10 μL of each 2 mM substrate solution described in Example 2, and 20 mM acetate buffer of pH 4.0 was added thereto to be a liquid volume of 210 μL. Further, 40 μL of the enzyme solution was added and reaction was carried out at a final liquid volume of 250 μL. Adjustment of the glucose solution to be added allows glucose to exist in the reaction mixture in the range of 0 to 20%. The reaction was carried out at 55° C. and the existence of isoflavone glycosides and aglycon isoflavones was detected by HLPC at 0, 0.5, 1, and 3 hours of the reaction.

Structure (SMILES): CC(=O)OC[C@H]1O[C@@H](Oc2cc(O)c3c(=O)c(-c4ccc(O)cc4)coc3c2)[C@H](O)[C@@H](O)[C@@H]1O [acetylgenistin, 6″-O-acetylgenistin]
- aglycon ([1]; Reaction time 0 h): 0
- glucoside ([1]; Reaction time 0 h): 100
- aglycon ([1]; Reaction time 1 h): 99.8
- glucoside ([1]; Reaction time 1 h): 0.2
- aglycon ([1]; Reaction time 3 h): 99.9
- glucoside ([1]; Reaction time 3 h): 0.1
- aglycon ([1]; Reaction time 6 h): 99.8
- glucoside ([1]; Reaction time 6 h): 0.2
- aglycon ([2]; Reaction time 0 h): 0
- glucoside ([2]; Reaction time 0 h): 100
- aglycon ([2]; Reaction time 1 h): 12.6
- glucoside ([2]; Reaction time 1 h): 87.4
- aglycon ([2]; Reaction time 3 h): 22.9
- glucoside ([2]; Reaction time 3 h): 77.1
- aglycon ([2]; Reaction time 6 h): 35.2
- glucoside ([2]; Reaction time 6 h): 64.8
- aglycon ([3]; Reaction time 0 h): 0
- glucoside ([3]; Reaction time 0 h): 100
- aglycon ([3]; Reaction time 1 h): 0
- glucoside ([3]; Reaction time 1 h): 100
- aglycon ([3]; Reaction time 3 h): 0
- glucoside ([3]; Reaction time 3 h): 100
- aglycon ([3]; Reaction time 6 h): 0
- glucoside ([3]; Reaction time 6 h): 100
- aglycon ([4]; Reaction time 0 h): 0
- glucoside ([4]; Reaction time 0 h): 100
- aglycon ([4]; Reaction time 1 h): 0
- glucoside ([4]; Reaction time 1 h): 100
- aglycon ([4]; Reaction time 3 h): 0.2
- glucoside ([4]; Reaction time 3 h): 99.8
- aglycon ([4]; Reaction time 6 h): 0.5
- glucoside ([4]; Reaction time 6 h): 99.5
- Isolation of isoflavone aglycons by diglycosidase in presence of glucose (Purified diglycosidase; Glucose concentration 0 %): 100%
- Isolation of isoflavone aglycons by diglycosidase in presence of glucose (Purified diglycosidase; Glucose concentration 2 %): 104.1%
- Isolation of isoflavone aglycons by diglycosidase in presence of glucose (Purified diglycosidase; Glucose concentration 4 %): 104.1%
- Isolation of isoflavone aglycons by diglycosidase in presence of glucose (Purified diglycosidase; Glucose concentration 8 %): 104.1%
- Isolation of isoflavone aglycons by diglycosidase in presence of glucose (Purified diglycosidase; Glucose concentration 20 %): 104.1%

Structure (SMILES): O=C(O)CC(=O)OC[C@H]1O[C@@H](Oc2cc(O)c3c(=O)c(-c4ccc(O)cc4)coc3c2)[C@H](O)[C@@H](O)[C@@H]1O [malonylgenistin, 6″-O-malonylgenistin]
- aglycon ([1]; Reaction time 0 h): 0
- glucoside ([1]; Reaction time 0 h): 100
- aglycon ([1]; Reaction time 1 h): 74.2
- glucoside ([1]; Reaction time 1 h): 25.8
- aglycon ([1]; Reaction time 3 h): 82.1
- glucoside ([1]; Reaction time 3 h): 17.9
- aglycon ([1]; Reaction time 6 h): 82.3
- glucoside ([1]; Reaction time 6 h): 17.7
- aglycon ([2]; Reaction time 0 h): 0
- glucoside ([2]; Reaction time 0 h): 100
- aglycon ([2]; Reaction time 1 h): 2.4
- glucoside ([2]; Reaction time 1 h): 97.6
- aglycon ([2]; Reaction time 3 h): 5.2
- glucoside ([2]; Reaction time 3 h): 94.8
- aglycon ([2]; Reaction time 6 h): 8.2
- glucoside ([2]; Reaction time 6 h): 91.8
- aglycon ([3]; Reaction time 0 h): 0
- glucoside ([3]; Reaction time 0 h): 100
- aglycon ([3]; Reaction time 1 h): 0
- glucoside ([3]; Reaction time 1 h): 100
- aglycon ([3]; Reaction time 3 h): 0
- glucoside ([3]; Reaction time 3 h): 100
- aglycon ([3]; Reaction time 6 h): 0
- glucoside ([3]; Reaction time 6 h): 100
- aglycon ([4]; Reaction time 0 h): 0
- glucoside ([4]; Reaction time 0 h): 100
- aglycon ([4]; Reaction time 1 h): 0
- glucoside ([4]; Reaction time 1 h): 100
- aglycon ([4]; Reaction time 3 h): 0.6
- glucoside ([4]; Reaction time 3 h): 99.4
- aglycon ([4]; Reaction time 6 h): 2
- glucoside ([4]; Reaction time 6 h): 98
- Isolation of isoflavone aglycons by diglycosidase in presence of glucose (Purified diglycosidase; Glucose concentration 0 %): 100%
- Isolation of isoflavone aglycons by diglycosidase in presence of glucose (Purified diglycosidase; Glucose concentration 2 %): 152%
- Isolation of isoflavone aglycons by diglycosidase in presence of glucose (Purified diglycosidase; Glucose concentration 4 %): 164.7%
- Isolation of isoflavone aglycons by diglycosidase in presence of glucose (Purified diglycosidase; Glucose concentration 8 %): 163.5%
- Isolation of isoflavone aglycons by diglycosidase in presence of glucose (Purified diglycosidase; Glucose concentration 20 %): 139.5%

Structure (SMILES): COc1cc2c(=O)c(-c3ccc(O)cc3)coc2cc1O[C@@H]1O[C@H](COC(C)=O)[C@@H](O)[C@H](O)[C@H]1O [acetylglycitin, 6″-O-acetylglycitin]
- aglycon ([1]; Reaction time 0 h): 0
- glucoside ([1]; Reaction time 0 h): 100
- aglycon ([1]; Reaction time 1 h): 98
- glucoside ([1]; Reaction time 1 h): 2
- aglycon ([1]; Reaction time 3 h): 97.9
- glucoside ([1]; Reaction time 3 h): 2.1
- aglycon ([1]; Reaction time 6 h): 97.5
- glucoside ([1]; Reaction time 6 h): 2.5
- aglycon ([2]; Reaction time 0 h): 0
- glucoside ([2]; Reaction time 0 h): 100
- aglycon ([2]; Reaction time 1 h): 6
- glucoside ([2]; Reaction time 1 h): 94
- aglycon ([2]; Reaction time 3 h): 13.5
- glucoside ([2]; Reaction time 3 h): 86.5
- aglycon ([2]; Reaction time 6 h): 22.7
- glucoside ([2]; Reaction time 6 h): 77.3
- aglycon ([3]; Reaction time 0 h): 0
- glucoside ([3]; Reaction time 0 h): 100
- aglycon ([3]; Reaction time 1 h): 0
- glucoside ([3]; Reaction time 1 h): 100
- aglycon ([3]; Reaction time 3 h): 0
- glucoside ([3]; Reaction time 3 h): 100
- aglycon ([3]; Reaction time 6 h): 0
- glucoside ([3]; Reaction time 6 h): 100
- aglycon ([4]; Reaction time 0 h): 0
- glucoside ([4]; Reaction time 0 h): 100
- aglycon ([4]; Reaction time 1 h): 0
- glucoside ([4]; Reaction time 1 h): 100
- aglycon ([4]; Reaction time 3 h): 0
- glucoside ([4]; Reaction time 3 h): 100
- aglycon ([4]; Reaction time 6 h): 0
- glucoside ([4]; Reaction time 6 h): 100
- Isolation of isoflavone aglycons by diglycosidase in presence of glucose (Purified diglycosidase; Glucose concentration 0 %): 100%
- Isolation of isoflavone aglycons by diglycosidase in presence of glucose (Purified diglycosidase; Glucose concentration 2 %): 100.9%
- Isolation of isoflavone aglycons by diglycosidase in presence of glucose (Purified diglycosidase; Glucose concentration 4 %): 100.9%
- Isolation of isoflavone aglycons by diglycosidase in presence of glucose (Purified diglycosidase; Glucose concentration 8 %): 100.9%
- Isolation of isoflavone aglycons by diglycosidase in presence of glucose (Purified diglycosidase; Glucose concentration 20 %): 100.9%

Structure (SMILES): COc1cc2c(=O)c(-c3ccc(O)cc3)coc2cc1O[C@@H]1O[C@H](CO)[C@@H](O)[C@H](O)[C@H]1O [glycitin]
- aglycon ([1]; Reaction time 0 h): 0
- glucoside ([1]; Reaction time 0 h): 100
- aglycon ([1]; Reaction time 1 h): 97.9
- glucoside ([1]; Reaction time 1 h): 2.1
- aglycon ([1]; Reaction time 3 h): 99.8
- glucoside ([1]; Reaction time 3 h): 0.2
- aglycon ([1]; Reaction time 6 h): 99.7
- glucoside ([1]; Reaction time 6 h): 0.3
- aglycon ([2]; Reaction time 0 h): 0
- glucoside ([2]; Reaction time 0 h): 100
- aglycon ([2]; Reaction time 1 h): 0.5
- glucoside ([2]; Reaction time 1 h): 99.5
- aglycon ([2]; Reaction time 3 h): 0
- glucoside ([2]; Reaction time 3 h): 100
- aglycon ([2]; Reaction time 6 h): 0
- glucoside ([2]; Reaction time 6 h): 100
- aglycon ([3]; Reaction time 0 h): 0
- glucoside ([3]; Reaction time 0 h): 100
- aglycon ([3]; Reaction time 1 h): 1.6
- glucoside ([3]; Reaction time 1 h): 98.4
- aglycon ([3]; Reaction time 3 h): 1.9
- glucoside ([3]; Reaction time 3 h): 98.1
- aglycon ([3]; Reaction time 6 h): 1.9
- glucoside ([3]; Reaction time 6 h): 98.1
- aglycon ([4]; Reaction time 0 h): 0
- glucoside ([4]; Reaction time 0 h): 100
- aglycon ([4]; Reaction time 1 h): 0.8
- glucoside ([4]; Reaction time 1 h): 99.2
- aglycon ([4]; Reaction time 3 h): 2.4
- glucoside ([4]; Reaction time 3 h): 97.6
- aglycon ([4]; Reaction time 6 h): 4.5
- glucoside ([4]; Reaction time 6 h): 95.5
- Isolation of isoflavone aglycons by diglycosidase in presence of glucose (Purified diglycosidase; Glucose concentration 0 %): 100%
- Isolation of isoflavone aglycons by diglycosidase in presence of glucose (Purified diglycosidase; Glucose concentration 2 %): 96%
- Isolation of isoflavone aglycons by diglycosidase in presence of glucose (Purified diglycosidase; Glucose concentration 4 %): 99.7%
- Isolation of isoflavone aglycons by diglycosidase in presence of glucose (Purified diglycosidase; Glucose concentration 8 %): 100.1%
- Isolation of isoflavone aglycons by diglycosidase in presence of glucose (Purified diglycosidase; Glucose concentration 20 %): 92.8%
